Measured values published in ChEMBL document CHEMBL1641372 (Bioorg Med Chem Lett, 2011).
pEC50, pIC50, pKi: −log10 of the molar value.

What was measured:
Mus musculus = experiment: Partial agonist activity at 5HT3 receptor in po dosed mouse assessed inhibition of serotonin-induced bradycardia administered 1 hr before serotonin challenge by von Bezold-Jarisch reflex test; format: functional
[1] = target: T1, 5-hydroxytryptamine receptor 3A (Homo sapiens, UniProt P46098); experiment: Binding affinity to human 5HT3A receptor; format: single protein
T1 sequence (P46098 whole entry): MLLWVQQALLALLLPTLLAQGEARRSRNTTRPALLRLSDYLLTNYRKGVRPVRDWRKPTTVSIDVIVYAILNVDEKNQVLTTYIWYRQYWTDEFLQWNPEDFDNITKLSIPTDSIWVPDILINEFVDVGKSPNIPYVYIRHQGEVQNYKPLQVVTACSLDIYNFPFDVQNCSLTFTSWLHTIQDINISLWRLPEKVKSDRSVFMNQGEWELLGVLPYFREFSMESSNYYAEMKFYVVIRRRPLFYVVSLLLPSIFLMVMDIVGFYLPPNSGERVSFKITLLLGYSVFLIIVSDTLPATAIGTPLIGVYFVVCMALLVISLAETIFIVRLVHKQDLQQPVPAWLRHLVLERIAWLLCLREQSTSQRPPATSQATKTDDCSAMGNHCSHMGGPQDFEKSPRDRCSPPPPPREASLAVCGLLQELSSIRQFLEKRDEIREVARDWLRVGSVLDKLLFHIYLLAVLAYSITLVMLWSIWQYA

[2] = Inhibition of human CYP450; format: ADME
Cytochrome P450 3A4 = Cytochrome P450 3A4 (Homo sapiens, UniProt P08684); experiment: Inhibition of human CYP3A4; format: ADME
Sequence of Cytochrome P450 3A4 (P08684 whole entry): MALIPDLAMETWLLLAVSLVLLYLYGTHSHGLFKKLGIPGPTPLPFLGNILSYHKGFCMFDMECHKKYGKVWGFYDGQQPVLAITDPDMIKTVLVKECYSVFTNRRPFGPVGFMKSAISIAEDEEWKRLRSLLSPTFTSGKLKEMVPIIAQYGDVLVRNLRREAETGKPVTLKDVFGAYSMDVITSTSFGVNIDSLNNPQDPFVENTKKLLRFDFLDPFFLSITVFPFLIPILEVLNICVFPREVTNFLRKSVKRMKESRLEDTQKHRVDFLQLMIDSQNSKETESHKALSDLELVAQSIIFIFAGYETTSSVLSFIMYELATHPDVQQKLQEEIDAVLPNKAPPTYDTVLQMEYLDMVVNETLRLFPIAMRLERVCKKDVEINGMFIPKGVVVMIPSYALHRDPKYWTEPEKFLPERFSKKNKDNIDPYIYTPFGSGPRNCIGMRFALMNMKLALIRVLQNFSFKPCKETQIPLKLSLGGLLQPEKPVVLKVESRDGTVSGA

[3] = Intrinsic clearance in human liver microsomes assessed per mg of protein; format: ADME, Microsome
[4] = Solubility of the compound at pH 7.4 phosphate buffered saline; format: physicochemical
[5] = target: T1, 5-hydroxytryptamine receptor 3A; experiment: Partial agonist activity at human 5HT3A receptor expressed in HEK293 cells assessed as effect on serotonin-induced response; format: functional, cell-based
[6] = target: T1, 5-hydroxytryptamine receptor 3A; experiment: Partial agonist activity at human 5HT3A receptor expressed in HEK293 cells assessed as decrease in 10 uM 5-chloroindole-induced increase in intracellular calcium release; format: functional, cell-based
[7] = target: T2, 5-hydroxytryptamine receptor 1A (Homo sapiens) (UniProt P08908); experiment: Inhibition of 5HT1A receptor at 1 uM
T2 sequence (whole entry): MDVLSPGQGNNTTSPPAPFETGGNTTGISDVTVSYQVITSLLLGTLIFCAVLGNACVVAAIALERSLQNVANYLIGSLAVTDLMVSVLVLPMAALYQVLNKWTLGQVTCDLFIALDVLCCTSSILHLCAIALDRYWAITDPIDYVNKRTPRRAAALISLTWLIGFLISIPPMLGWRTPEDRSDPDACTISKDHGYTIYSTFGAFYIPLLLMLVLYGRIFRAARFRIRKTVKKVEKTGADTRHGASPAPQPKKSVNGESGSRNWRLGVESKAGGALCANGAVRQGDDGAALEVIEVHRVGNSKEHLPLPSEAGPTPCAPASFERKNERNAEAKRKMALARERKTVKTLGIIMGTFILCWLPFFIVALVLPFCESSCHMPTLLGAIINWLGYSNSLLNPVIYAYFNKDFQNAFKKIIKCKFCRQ

[8] = target: 5-hydroxytryptamine receptor 4 (Homo sapiens) (UniProt Q13639); experiment: Inhibition of 5HT4 receptor at 1 uM
Sequence of 5-hydroxytryptamine receptor 4 (Homo sapiens) (Q13639 whole entry): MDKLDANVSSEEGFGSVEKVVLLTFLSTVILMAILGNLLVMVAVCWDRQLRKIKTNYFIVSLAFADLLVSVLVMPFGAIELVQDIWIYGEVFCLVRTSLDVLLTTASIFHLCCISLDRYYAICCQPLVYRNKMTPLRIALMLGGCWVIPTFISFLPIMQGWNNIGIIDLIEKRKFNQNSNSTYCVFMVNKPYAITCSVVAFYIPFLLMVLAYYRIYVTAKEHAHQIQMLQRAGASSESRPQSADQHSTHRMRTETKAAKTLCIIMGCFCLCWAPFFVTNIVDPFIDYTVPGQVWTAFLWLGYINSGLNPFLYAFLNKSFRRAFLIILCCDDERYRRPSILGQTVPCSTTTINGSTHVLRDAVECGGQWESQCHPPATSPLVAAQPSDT

Cc1[nH]cnc1CN1CCc2c(c3ccccc3n2C)C1=O [ALOSETRON]
ED50 (Mus musculus): 0.02 mg/kg

Cn1cc2c3c(cccc31)C(=O)N([C@@H]1CN3CCC1CC3)C2
pKi [1]: 9.15

Cn1nc2c3c(cccc31)C(=O)N([C@H]1CN3CCC1CC3)C2
pIC50 [2]: < 4.30
pIC50 (Cytochrome P450 3A4): > 5.00
microsomal CLint [3]: 3.8 µL/min/mg
solubility [4]: > 500 µM
ED50 (Mus musculus): 0.25 mg/kg
pKi [1]: 8.77
pEC50 [5]: 7.90
pEC50 [6]: 8.16

O=C1c2cccc3[nH]nc(c23)CN1[C@H]1CN2CCC1CC2
pIC50 [2]: < 4.30
pIC50 (Cytochrome P450 3A4): > 5.00
microsomal CLint [3]: 7.3 µL/min/mg
inhibition [7]: > 50%
inhibition [8]: > 50%
ED50 (Mus musculus): 0.64 mg/kg

O=C1c2cccc3c2c(nn3Cc2ccccc2)CN1[C@H]1CN2CCC1CC2
pKi [1]: 8.15

CCn1nc2c3c(cccc31)C(=O)N([C@H]1CN3CCC1CC3)C2
pKi [1]: 8.70

CC(C)Cn1nc2c3c(cccc31)C(=O)N([C@@H]1CN3CCC1CC3)C2
pKi [1]: 8.62

CCn1nc2c3c(cccc31)C(=O)N([C@@H]1CN3CCC1CC3)C2
pKi [1]: 8.80

Cn1nc2c3c(cccc31)C(=O)N([C@@H]1CN3CCC1CC3)C2
pKi [1]: 9.15

Cn1cc2c3c(cccc31)C(=O)N([C@H]1CN3CCC1CC3)C2
pKi [1]: 9.05

O=C(N[C@H]1CN2CCC1CC2)c1c[nH]c2ccsc2c1=O [PUMOSETRAG]
pIC50 (Cytochrome P450 3A4): 5.03
microsomal CLint [3]: 24 µL/min/mg
ED50 (Mus musculus): 0.96 mg/kg
pEC50 [5]: 8.27
pEC50 [6]: 8.04

O=C1c2cccc3[nH]nc(c23)CN1[C@@H]1CN2CCC1CC2
inhibition [7]: > 50%
inhibition [8]: > 50%

Cn1nc2c3c(cc(F)cc31)C(=O)N([C@H]1CN3CCC1CC3)C2
pKi [1]: 8.70
